The source of these data is paper PMC2841478 (Journal of medicinal chemistry, 2008).

For data set [1], the target named is T1, norepinephrine transporter (NET) (Rattus norvegicus, UniProt Q63380). Put plainly: Competitive binding at the NET with [3H]nisoxetine.
Data set [2] concerns the target T2, serotonin transporter (5-HTT) (Rattus norvegicus, UniProt P31652). Put plainly: Competitive binding at the 5-HTT with [3H]paroxetine.
For data set [3], the target named is T3, dopamine transporter (DAT) (Rattus norvegicus, UniProt P23977). The data set can be described thus: Competitive binding at the DAT with [3H]WIN 35,428.
Data set [4] concerns cocaine self-administration. The settings on record: rhesus monkeys, multiple second-order schedule; cited from earlier work.
Data set [5] concerns the target T1, norepinephrine transporter (NET). The settings on record: read-out: NET, Ki [3H]nisoxetine; comparison data; cited from earlier work.
The subject of another data set is drug self-administration. The settings on record: three rhesus monkeys; cited from earlier work.
Data set [6] deals with T3, dopamine transporter (DAT). As to conditions: read-out: DAT, IC50 [3H]12; comparison data; cited from earlier work.
The target of data set [7] is T2, serotonin transporter (5-HTT). The settings on record: read-out: 5-HTT, Ki [3H]paroxetine; comparison data; cited from earlier work.
The test system of a further data set is reinforcement. The settings on record: squirrel monkeys; cited from earlier work.
The subject of data set [8] is dopamine transporter (DAT). As to conditions: cited from earlier work.

As usually defined, the Ki is a dissociation constant, usually derived from enzyme kinetics or from competition with a known ligand. By IC50 is commonly meant the point on the concentration scale where inhibition reaches its midpoint.

Entries after “also recorded” stand apart in the source; their conditions may differ. Like-named read-outs stand apart in the source and are kept apart here. Where only a bound is given, the exact number is not on record here.

T1 sequence (Q63380 1-617): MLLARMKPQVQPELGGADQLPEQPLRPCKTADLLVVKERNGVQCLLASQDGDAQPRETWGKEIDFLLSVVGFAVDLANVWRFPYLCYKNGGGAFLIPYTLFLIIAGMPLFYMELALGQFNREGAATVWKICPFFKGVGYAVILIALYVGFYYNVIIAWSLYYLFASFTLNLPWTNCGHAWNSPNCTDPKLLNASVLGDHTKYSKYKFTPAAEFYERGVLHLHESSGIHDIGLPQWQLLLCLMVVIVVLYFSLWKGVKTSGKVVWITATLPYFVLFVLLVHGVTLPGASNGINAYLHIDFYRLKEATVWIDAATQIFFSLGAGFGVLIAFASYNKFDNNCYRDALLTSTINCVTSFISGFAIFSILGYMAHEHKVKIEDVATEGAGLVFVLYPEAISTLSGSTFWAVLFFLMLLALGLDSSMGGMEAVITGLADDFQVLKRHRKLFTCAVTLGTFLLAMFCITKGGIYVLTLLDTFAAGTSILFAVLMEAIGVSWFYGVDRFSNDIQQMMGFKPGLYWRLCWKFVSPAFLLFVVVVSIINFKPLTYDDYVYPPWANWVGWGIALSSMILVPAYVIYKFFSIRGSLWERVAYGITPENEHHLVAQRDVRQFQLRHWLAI
T2 sequence (P31652 whole entry): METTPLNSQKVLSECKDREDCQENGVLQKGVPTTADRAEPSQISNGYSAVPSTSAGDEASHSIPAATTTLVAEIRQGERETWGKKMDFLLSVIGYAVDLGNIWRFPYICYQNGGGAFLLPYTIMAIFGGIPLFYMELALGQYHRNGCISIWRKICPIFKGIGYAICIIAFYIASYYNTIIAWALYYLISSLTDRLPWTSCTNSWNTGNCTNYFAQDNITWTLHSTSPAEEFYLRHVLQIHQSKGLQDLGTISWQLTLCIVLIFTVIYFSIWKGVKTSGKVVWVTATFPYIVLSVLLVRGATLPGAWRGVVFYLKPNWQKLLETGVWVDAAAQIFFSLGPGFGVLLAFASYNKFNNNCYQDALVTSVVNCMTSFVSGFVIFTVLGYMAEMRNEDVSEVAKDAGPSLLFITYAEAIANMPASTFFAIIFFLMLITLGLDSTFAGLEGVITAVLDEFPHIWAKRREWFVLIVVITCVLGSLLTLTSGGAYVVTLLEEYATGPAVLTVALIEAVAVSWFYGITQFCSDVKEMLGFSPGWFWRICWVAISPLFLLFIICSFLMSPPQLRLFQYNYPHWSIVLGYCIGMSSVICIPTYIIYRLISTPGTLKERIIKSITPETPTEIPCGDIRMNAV
T3 sequence (P23977 whole entry): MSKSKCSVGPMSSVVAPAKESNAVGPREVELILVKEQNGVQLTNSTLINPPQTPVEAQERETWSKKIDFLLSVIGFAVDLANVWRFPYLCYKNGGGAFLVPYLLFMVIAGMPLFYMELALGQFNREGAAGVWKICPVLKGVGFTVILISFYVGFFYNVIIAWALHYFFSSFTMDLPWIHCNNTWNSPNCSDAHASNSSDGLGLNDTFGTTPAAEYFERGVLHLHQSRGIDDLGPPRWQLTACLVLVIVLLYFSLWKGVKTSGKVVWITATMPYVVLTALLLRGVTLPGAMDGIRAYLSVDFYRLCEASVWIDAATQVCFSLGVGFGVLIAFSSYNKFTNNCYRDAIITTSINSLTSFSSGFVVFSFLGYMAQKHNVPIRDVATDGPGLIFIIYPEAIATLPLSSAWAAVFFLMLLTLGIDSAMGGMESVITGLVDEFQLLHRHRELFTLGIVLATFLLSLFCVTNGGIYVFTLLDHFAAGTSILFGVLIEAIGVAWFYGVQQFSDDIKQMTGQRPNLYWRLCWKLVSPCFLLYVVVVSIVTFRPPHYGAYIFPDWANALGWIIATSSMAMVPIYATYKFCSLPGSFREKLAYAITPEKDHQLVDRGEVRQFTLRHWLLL

For `COC(=O)[C@H]1[C@@H](c2ccc(OC)cc2)C[C@@H]2CC[C@H]1N2C` [7a, 3β-(4-Methoxyphenyl)tropane-2β-carboxylic Acid Methyl Ester], the Ki in data set [1] came out at 1.11 ± 0.064 µM; in data set [2], 0.0043 ± 0.0005 µM.

For the compound `CCOc1ccc([C@H]2C[C@@H]3CC[C@H]([C@H]2C(=O)OC)N3C)cc1` [7b, 3β-(4-Ethoxyphenyl)tropane-2β-carboxylic Acid Methyl Ester], the Ki is 1.69 ± 0.05 µM in data set [1] and 0.0017 ± 0.0004 µM in [2].

As to `COC(=O)[C@H]1[C@@H](c2ccc(OC)c(F)c2)C[C@@H]2CC[C@H]1N2C` [7c, 3β-(3-Fluoro-4-methoxyphenyl)tropane-2β-carboxylic Acid Methyl Ester], the figures for the Ki in data set [1] and in data set [2] were 0.27 ± 0.05 µM and 0.0048 ± 0.0005 µM, respectively.

`COC(=O)[C@H]1[C@@H](c2ccc(OC)c(Br)c2)C[C@@H]2CC[C@H]1N2C` [7d, 3β-(3-Bromo-4-methoxyphenyl)tropane-2β-carboxylic Acid Methyl Ester]: the Ki is 0.16 ± 0.02 µM in data set [1] and 0.0031 ± 0.0001 µM in [2].

For `COC(=O)[C@H]1[C@@H](c2cc(I)c(OC)c(I)c2)C[C@@H]2CC[C@H]1N2C` [7g, 3β-(3,5-Diiodo-4-methoxyphenyl)tropane-2β-carboxylic Acid Methyl Ester], the figures for the Ki in [1] and in data set [2] were > 5 µM and 0.0075 ± 0.0008 µM, respectively.

`COc1ccc([C@H]2C[C@@H]3CC[C@H]([C@H]2C(=O)OC(C)C)N3C)cc1` [8a, 3β-(4-Methoxyphenyl)tropane-2β-carboxylic Acid Isopropyl Ester]: the inhibitory constant (Ki) in data set [1] was found to be 2.01 ± 0.2 µM; in [2] it was 0.135 ± 0.035 µM.

Turning to `COc1ccc([C@H]2C[C@@H]3CC[C@H]([C@H]2C(=O)OC2CC2)N3C)cc1` [8b, 3β-(4-Methoxyphenyl)tropane-2β-carboxylic Acid Cyclopropyl Ester], the Ki worked out at 1.23 ± 0.14 µM in [1] and 0.029 ± 0.003 µM in data set [2].

As to `COc1ccc([C@H]2C[C@@H]3CC[C@H]([C@H]2C(=O)OC2CCC2)N3C)cc1` [8c, 3β-(4-Methoxyphenyl)tropane-2β-carboxylic Acid Cyclobutyl Ester], the figures for the Ki in [1] and in data set [2] were > 3 µM and 0.1 ± 0.008 µM, respectively.

Turning to `COc1ccc([C@H]2C[C@@H]3CC[C@H]([C@H]2C(=O)OCCc2ccc([N+](=O)[O-])cc2)N3C)cc1` [8d, 3β-(4-Methoxyphenyl)tropane-2β-carboxylic Acid 2-(4-Nitrophenyl)ethyl Ester], the Ki in [1] worked out at 0.33 ± 0.02 µM; in data set [2], 0.0029 ± 0.0002 µM.

On to `COc1ccc([C@H]2C[C@@H]3CC[C@H]([C@H]2C(=O)OCCc2ccc(N)cc2)N3C)cc1` [8e, 3β-(4-Methoxyphenyl)tropane-2β-carboxylic Acid 2-(4-Aminophenyl)ethyl Ester], for which the Ki in data set [1] is 2.2 ± 0.3 µM; in [2], 0.0083 ± 0.0004 µM.

`COc1ccc([C@H]2C[C@@H]3CC[C@H]([C@H]2C(=O)OCCc2ccc(NC(C)=O)cc2)N3C)cc1` [8f, 3β-(4-Methoxyphenyl)tropane-2β-carboxylic Acid 2-(4-Acetylaminophenyl)ethyl Ester]: the results for the Ki in [1] and in [2] were 1.46 ± 0.03 µM and 0.0055 ± 0.0005 µM, respectively.

For `COc1ccc([C@H]2C[C@@H]3CC[C@H]([C@H]2C(=O)OCCc2ccc(N)c(Br)c2)N3C)cc1` [8g, 3β-(4-Methoxyphenyl)tropane-2β-carboxylic Acid 2-(3-Bromo-4-aminophenyl)ethyl Ester], the inhibition constant (Ki) in data set [1] came to 1.85 ± 0.09 µM; in data set [2] it was 0.0041 ± 0.0006 µM.

Regarding `COc1ccc([C@H]2C[C@@H]3CC[C@H]([C@H]2C(=O)OCCc2cc(Br)c(N)c(Br)c2)N3C)cc1` [8h, 3β-(4-Methoxyphenyl)tropane-2β-carboxylic Acid 2-(3,5-Dibromo-4-aminophenyl)ethyl Ester], the Ki in data set [1] amounted to 2.71 ± 0.25 µM; in data set [2], 0.002 ± 0.0004 µM.

Consider `COc1ccc([C@H]2C[C@@H]3CC[C@H]([C@H]2C(=O)OCCc2ccc(N)c(I)c2)N3C)cc1` [8i, 3β-(4-Methoxyphenyl)tropane-2β-carboxylic Acid 2-(3-Iodo-4-aminophenyl)ethyl Ester], for which the inhibitory constant (Ki) in data set [1] was 2.04 ± 0.3 µM; in data set [2], 0.0035 ± 0.001 µM.

For `COc1ccc([C@H]2C[C@@H]3CC[C@H]([C@H]2C(=O)OCCc2cc(I)c(N)c(I)c2)N3C)cc1` [8j, 3β-(4-Methoxyphenyl)tropane-2β-carboxylic Acid 2-(3,5-Diiodo-4-aminophenyl)ethyl Ester], the IC50 in [3] turned out to be 0.1 µM. In addition, the inhibition constant Ki in data set [1] was found to be 2.6 ± 0.2 µM; in data set [2] it was 0.001 ± 0.0001 µM.

For `Cc1ccc(-c2cc([C@@H]3C4CCC(C[C@@H]3c3ccc(Cl)cc3)N4C)on2)cc1` (stereo partly drawn) [compound 3, 3β-(4-chlorophenyl)-2β-[3-(4′-methylphenyl)isoxazol-5-yl]tropane], the “Cocaine maintained responding after pretreatment” value in [4] is “dose-dependent reduction”.

Turning to `COC(=O)[C@H]1[C@@H](c2ccc(Cl)c(C)c2)C[C@@H]2CC[C@H]1N2C` [compound 6, 3β-(4-Chloro-3-methylphenyl)tropane-2β-carboxylic acid methyl ester], the Ki is 0.0218 ± 0.0006 µM in data set [5] and 0.00095 ± 4e-05 µM in data set [7]. Besides, the “Maintenance of drug self-administration” value with drug self-administration is on record as “failed to maintain robust drug self-administration”. Moreover, the IC50 in data set [6] was 0.00082 ± 5e-05 µM. Further, the Reinforcement effects result with reinforcement was “did not exhibit any reinforcement effects”. In addition, the DAT occupancy result in data set [8] (at the ED50 for reduction of cocaine self-administration) is given as “no detectable; also recorded: below the limits of detection”; in [8] (highest dose tested), “greater than 70%”.

Take `COc1ccc([C@H]2C[C@@H]3CC[C@H]([C@H]2c2cc(-c4ccc(C)cc4)no2)N3C)cc1` [compound 9, 3β-(4-Methoxyphenyl)-2β-[3-(4′-methylphenyl)isoxazol-5-yl]tropane]: the inhibitory constant (Ki) in [1] is > 3 µM; in data set [2], 0.86 ± 0.17 µM.
